Experimental data: patent publication US20190262453A1, “DESIGN AND COMPOSITION OF CELL-STABILIZED PHARMACEUTICAL FORMULATIONS” (THE REGENTS OF THE UNIVERSITY OF MICHIGAN, priority 2016, published 2019)
Values joined by “and” are separate entries in the source; they are usually repeats but may differ in a detail not shown here. Equal entries are not always repeated.

Test system: RAW264.7 cells
Experiment: Cell viability (XTT assay)
Format: cell-based
Settings: not given
Procedure: Cell Viability. Viability of RAW264.7 cells were performed using Cell Proliferation Kit II (XTT) (Roche Applied Science, Mannheim, Germany, Cat. No. 11465015001) using the manufacturer's instructions. […] Post 24 hours exposure to CFZ, the cells were incubated with the yellow XTT solution (final concentration 0.3 mg/ml) for 4 h. […] An increase in number of living cells directly correlates to the amount of orange formazan formed, as monitored by the solution absorbance at 500 nm (Abs500). The following formula was used to determine viability of drug and inhibitor treated cells using untreated cells (blank) as a control—Cell Viability=(Abs500, treated—Abs700,treated)/(Abs500, blank—Abs700,blank).

Row | Molecule | effect on cell viability
1 | O=C(O)c1cc([N+](=O)[O-])ccc1NCCCc1ccccc1 [NPPB] | no significant effect

Same assay, conditions: BafA1 alone at 6 nM, n=6

Row | Molecule | cell viability
2 | CO/C1=C\C(C)=C\[C@@H](C)[C@@H](O)[C@@H](C)C/C(C)=C/C=C/[C@H](OC)[C@@H]([C@@H](C)[C@@H](O)[C@H](C)[C@@]2(O)C[C@@H](O)[C@H](C)[C@@H](C(C)C)O2)OC1=O [BafA1, bafilomycin A1] | 65±25%

Same assay, conditions: BafA1 alone at 8 nM, n=6

Row | Molecule | cell viability
3 | CO/C1=C\C(C)=C\[C@@H](C)[C@@H](O)[C@@H](C)C/C(C)=C/C=C/[C@H](OC)[C@@H]([C@@H](C)[C@@H](O)[C@H](C)[C@@]2(O)C[C@@H](O)[C@H](C)[C@@H](C(C)C)O2)OC1=O [BafA1, bafilomycin A1] | 33±6%

Test system: not given
Experiment: not given
Settings: in vivo; cited from earlier work

Row | Molecule | Vd
4 | COc1cc2nc(N(C)CCCNC(=O)C3CCCO3)nc(N)c2cc1OC (stereo not drawn) [Alfuzosin] | 3.2 L/kg
5 | O=C1CCc2ccc(OCCCCN3CCN(c4cccc(Cl)c4Cl)CC3)cc2N1 [Aripiprazole] | 4.9 L/kg
6 | CC[C@H]1OC(=O)[C@H](C)[C@@H](O[C@H]2C[C@@](C)(OC)[C@@H](O)[C@H](C)O2)[C@H](C)[C@@H](O[C@@H]2O[C@H](C)C[C@H](N(C)C)[C@H]2O)[C@](C)(O)C[C@@H](C)CN(C)[C@H](C)[C@@H](O)[C@]1(C)O [Azithromycin] | 31 L/kg
7 | CC(NC(C)(C)C)C(=O)c1cccc(Cl)c1 (stereo not drawn) [Bupropion] | 18.6 L/kg
8 | O=C1CC2(CCCC2)CC(=O)N1CCCCN1CCN(c2ncccn2)CC1 [Buspirone] | 5.3 L/kg
9 | CCCCCOC(=O)Nc1nc(=O)n([C@@H]2O[C@H](C)[C@@H](O)[C@H]2O)cc1F [Capecitabine] | 27.27 L/kg
10 | Cc1ccc(-c2cc(C(F)(F)F)nn2-c2ccc(S(N)(=O)=O)cc2)cc1 [Celecoxib] | 6.12 L/kg
11 | CCN(CC)CCCC(C)Nc1ccnc2cc(Cl)ccc12 (stereo not drawn) [Chloroquine] | 196.5 L/kg
12 | CN(C)CCC(c1ccc(Cl)cc1)c1ccccn1 (stereo not drawn) [Chlorpheniramine] | 3.2 L/kg
13 | CN(C)CCCN1c2ccccc2Sc2ccc(Cl)cc21 [Chlorpromazine] | 21 L/kg
14 | C[C@@H](NCCCc1cccc(C(F)(F)F)c1)c1cccc2ccccc12 [Cinacalcet] | 17.6 L/kg
15 | O=C1CN=C(c2ccccc2Cl)c2cc([N+](=O)[O-])ccc2N1 [Clonazepam] | 3.2 L/kg
16 | CN1CCN(C2=Nc3cc(Cl)ccc3Nc3ccccc32)CC1 [Clozapine] | 5.4 L/kg
17 | CN(C)CC(c1ccc(O)cc1)C1(O)CCCCC1 (stereo not drawn) [Desvenlafaxine] | 7.5 L/kg
18 | COc1ccc([C@@H]2Sc3ccccc3N(CCN(C)C)C(=O)[C@@H]2OC(C)=O)cc1 [Diltiazem] | 3.3 L/kg
19 | CC(=O)O[C@@]12CO[C@@H]1C[C@H](O)[C@@]1(C)C(=O)[C@H](O)C3=C(C)[C@@H](OC(=O)[C@H](O)[C@@H](NC(=O)OC(C)(C)C)c4ccccc4)C[C@@](O)([C@@H](OC(=O)c4ccccc4)[C@H]21)C3(C)C [Docetaxel] | 7.27 L/kg
20 | CN(C)CCC=C1c2ccccc2COc2ccccc21 [Doxepin] | 24 L/kg
21 | COc1cccc2c1C(=O)c1c(O)c3c(c(O)c1C2=O)C[C@@](O)(C(=O)CO)C[C@@H]3O[C@H]1C[C@H](N)[C@H](O)[C@H](C)O1 [Doxorubicin] | 682 L/kg
22 | CCCCCc1cc(O)c2c(c1)OC(C)(C)[C@@H]1CCC(C)=C[C@@H]21 [Dronabinol] | 8.9 L/kg
23 | CNCC[C@H](Oc1cccc2ccccc12)c1cccs1 [Duloxetine] | 7 L/kg
24 | Nc1nc(=O)n([C@@H]2CS[C@H](CO)O2)cc1F [Emtricitabine] | 3.5 L/kg
25 | O=C(NCC1CCCCN1)c1cc(OCC(F)(F)F)ccc1OCC(F)(F)F (stereo not drawn) [Flecainide] | 4.9 L/kg

Row | Molecule | Vd
26 | CNCCC(Oc1ccc(C(F)(F)F)cc1)c1ccccc1 (stereo not drawn) [Fluoxetine] | 35 L/kg
27 | OCCN1CCN(CCCN2c3ccccc3Sc3ccc(C(F)(F)F)cc32)CC1 [Fluphenazine] | 11 L/kg
28 | C[C@]12CC[C@@H]3c4ccc(O)cc4C[C@@H](CCCCCCCCC[S+]([O-])CCCC(F)(F)C(F)(F)F)[C@H]3[C@@H]1CC[C@@H]2O (stereo partly drawn) [Fulvestrant] | 4.15 L/kg
29 | O=C(CCCN1CCC(O)(c2ccc(Cl)cc2)CC1)c1ccc(F)cc1 [Haloperidol] | 18 L/kg
30 | CCN(CCO)CCCC(C)Nc1ccnc2cc(Cl)ccc12 (stereo not drawn) [Hydroxychloroquine] | 525 L/kg
31 | OCCOCCN1CCN(C(c2ccccc2)c2ccc(Cl)cc2)CC1 (stereo not drawn) [Hydroxyzine] | 19 L/kg and 16 L/kg
32 | CCCCCN(C)CCC(O)(P(=O)(O)O)P(=O)(O)O [Ibandronate] | 5.8 L/kg
33 | CC(=O)[C@]1(O)Cc2c(O)c3c(c(O)c2[C@@H](O[C@H]2C[C@H](N)[C@H](O)[C@H](C)O2)C1)C(=O)c1ccccc1C3=O [Idarubicin] | 24.7 L/kg
34 | CC1=C(/C=C/C(C)=C/C=C/C(C)=C\C(=O)O)C(C)(C)CCC1 [Isotretinoin] | 5 L/kg
35 | CCC(C)n1ncn(-c2ccc(N3CCN(c4ccc(OCC5COC(Cn6cncn6)(c6ccc(Cl)cc6Cl)O5)cc4)CC3)cc2)c1=O (stereo not drawn) [Itraconazole] | 10.7 L/kg
36 | OC(c1cc(C(F)(F)F)nc2c(C(F)(F)F)cccc12)C1CCCCN1 (stereo not drawn) [Mefloquine] | 19 L/kg
37 | CC12CC3CC(C)(C1)CC(N)(C3)C2 [Memantine] | 10.9 L/kg
38 | CCOC(=O)C1(c2ccccc2)CCN(C)CC1 [Meperidine] | 4.4 L/kg
39 | CCN(CC)CCNC(=O)c1cc(Cl)c(N)cc1OC [Metoclopramide] | 3.4 L/kg
40 | COCCc1ccc(OCC(O)CNC(C)C)cc1 (stereo not drawn) [Metoprolol] | 4.2 L/kg
41 | CN1CCN2c3ncccc3Cc3ccccc3C2C1 (stereo not drawn) [Mirtazapine] | 4.5 L/kg
42 | O=C1c2c(O)ccc(O)c2C(=O)c2c(NCCNCCO)ccc(NCCNCCO)c21 [Mitoxantrone] | 90 L/kg
43 | COc1c(C)c2c(c(O)c1C/C=C(\C)CCC(=O)O)C(=O)OC2 [Mycophenolate] | 3.8 L/kg
44 | Cc1cn(-c2cc(NC(=O)c3ccc(C)c(Nc4nccc(-c5cccnc5)n4)c3)cc(C(F)(F)F)c2)cn1 [Nilotinib] | 3.0 L/kg
45 | O=[N+]([O-])OCC(CO[N+](=O)[O-])O[N+](=O)[O-] [Nitroglycerin] | 3.3 L/kg
46 | CNCCC=C1c2ccccc2CCc2ccccc21 [Nortriptyline] | 18 L/kg
47 | Cc1nc2n(c(=O)c1CCN1CCC(c3noc4cc(F)ccc34)CC1)CCCC2O (stereo not drawn) [Paliperidone] | 9.1 L/kg

Row | Molecule | Vd
48 | Fc1ccc([C@@H]2CCNC[C@H]2COc2ccc3c(c2)OCO3)cc1 [Paroxetine] | 17 L/kg
49 | CC[C@@H]([C@H](C)O)n1ncn(-c2ccc(N3CCN(c4ccc(OC[C@@H]5CO[C@@](Cn6cncn6)(c6ccc(F)cc6F)C5)cc4)CC3)cc2)c1=O [Posaconazole] | 11.9 L/kg
50 | CCCN[C@H]1CCc2nc(N)sc2C1 [Pramipexole] | 7.3 L/kg
51 | O=C(C1CCCCC1)N1CC(=O)N2CCc3ccccc3C2C1 (stereo not drawn) [Praziquantel] | 9.55 L/kg
52 | CC(CN1c2ccccc2Sc2ccccc21)N(C)C (stereo not drawn) [Promethazine] | 13.4 L/kg
53 | CC(C)NCC(O)COc1cccc2ccccc12 (stereo not drawn) [Propranolol] | 4.3 L/kg
54 | OCCOCCN1CCN(C2=Nc3ccccc3Sc3ccccc32)CC1 [Quetiapine] | 10 L/kg
55 | O=C(c1ccc(OCCN2CCCCC2)cc1)c1c(-c2ccc(O)cc2)sc2cc(O)ccc12 [Raloxifene] | 2348 L/kg
56 | CCCN(CCC)CCc1cccc2c1CC(=O)N2 [Ropinirole] | 7.5 L/kg
57 | CO[C@H]1C[C@@H]2CC[C@@H](C)[C@@](O)(O2)C(=O)C(=O)N2CCCC[C@H]2C(=O)O[C@H]([C@H](C)C[C@@H]2CC[C@@H](O)[C@H](OC)C2)CC(=O)[C@H](C)/C=C(\C)[C@@H](O)[C@@H](OC)C(=O)[C@H](C)C[C@H](C)/C=C/C=C/C=C/1C [Sirolimus] | 12 L/kg
58 | O=C(O[C@H]1CN2CCC1CC2)N1CCc2ccccc2[C@@H]1c1ccccc1 [Solifenacin] | 671 L/kg
59 | CC(=O)S[C@@H]1CC2=CC(=O)CC[C@]2(C)[C@H]2CC[C@@]3(C)[C@@H](CC[C@@]34CCC(=O)O4)[C@H]12 [Spironolactone] | 10 L/kg
60 | CCN(CC)CCNC(=O)c1c(C)[nH]c(/C=C2\C(=O)Nc3ccc(F)cc32)c1C [Sunitinib] | 4 L/kg
61 | CC/C(=C(\c1ccccc1)c1ccc(OCCN(C)C)cc1)c1ccccc1 [Tamoxifen] | 55 L/kg
62 | CO[C@H]1C[C@@H]2CC[C@@H](C)[C@@](O)(O2)C(=O)C(=O)N2CCCC[C@H]2C(=O)O[C@H]([C@H](C)C[C@@H]2CC[C@@H](OC(=O)C(C)(CO)CO)[C@H](OC)C2)CC(=O)[C@H](C)/C=C(\C)[C@@H](O)[C@@H](OC)C(=O)[C@H](C)C[C@H](C)/C=C/C=C/C=C/1C [Temsirolimus] | 3.3 L/kg
63 | CN(C)c1cc(NC(=O)CNC(C)(C)C)c(O)c2c1C[C@H]1C[C@H]3[C@H](N(C)C)C(O)=C(C(N)=O)C(=O)[C@@]3(O)C(O)=C1C2=O [Tigecycline] | 7.2 L/kg
64 | CN(C)CCOc1ccc(/C(=C(/CCCl)c2ccccc2)c2ccccc2)cc1 [Toremifene] | 48.38 L/kg
65 | Nc1nc(N)c2nc(-c3ccccc3)c(N)nc2n1 [Triameterene] | 13.4 L/kg
66 | c1cnc2cc3c(cc2n1)[C@@H]1CNC[C@H]3C1 [Varenicline] | 6.2 L/kg
67 | CC[C@]1(O)C[C@H]2CN(CCc3c([nH]c4ccccc34)[C@@](C(=O)OC)(c3cc4c(cc3OC)N(C=O)[C@H]3[C@@](O)(C(=O)OC)[C@H](OC(C)=O)[C@]5(CC)C=CCN6CC[C@]43[C@@H]65)C2)C1 [Vincristine] | 9.79 L/kg
68 | CCC1=C[C@@H]2CN(C1)Cc1c([nH]c3ccccc13)[C@@](C(=O)OC)(c1cc3c(cc1OC)N(C)[C@H]1[C@@](O)(C(=O)OC)[C@H](OC(C)=O)[C@]4(CC)C=CCN5CC[C@]31[C@@H]54)C2 [Vinorelbine] | 76 L/kg
69 | Ivermectin | 9.91 L/kg
